In ChEMBL document CHEMBL1201862, “PubChem BioAssay data set” (2004):
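Tested at 5 concentrations; 48 h exposure; 96-well plates; endpoints linearly interpolated, else capped at highest concentration. GI50 is the concentration that inhibits growth by half.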 Activity calls are given as the source filed them. Cut-off read from the data, not from the text of the source: active = GI50 up to about 1.1 µM and inactive = higher.

What was measured:
Assay in all cases: growth of human tumour cells (NCI), 48 h
[1] = system: NCI-H226
[2] = system: NCI-H460
[3] = system: PC-3
[4] = system: UACC-257
[5] = system: CCRF-CEM
[6] = system: MCF7
[7] = system: BT-549
[8] = system: RPMI-8226
[9] = system: SW-620
[10] = system: SF-539
[11] = system: UO-31
[12] = system: HL-60
[13] = system: A498
[14] = system: OVCAR-5
[15] = system: SF-295
[16] = system: HCT-15
[17] = system: RXF 393
[18] = system: HOP-62
[19] = system: COLO 205
[20] = system: HT-29
[21] = system: NCI/ADR-RES
[22] = system: MOLT-4
[23] = system: M14
[24] = system: SK-MEL-5
[25] = system: DU-145
[26] = system: SF-268
[27] = system: SNB-75
[28] = system: HOP-92
[29] = system: MDA-N
[30] = system: ACHN
[31] = system: SK-OV-3
[32] = system: A549
[33] = system: EKVX
[34] = system: UACC-62
[35] = system: KM12
[36] = system: T47D
[37] = system: OVCAR-3
[38] = system: Hs-578T
[39] = system: SK-MEL-28
[40] = system: HCT-116
[41] = system: Malme-3M
[42] = system: SNB-19
[43] = system: SK-MEL-2
[44] = system: K562
[45] = system: U-251
[46] = system: NCI-H23
[47] = system: SN12C
[48] = system: IGROV-1
[49] = system: NCI-H522
[50] = system: OVCAR-8
[51] = system: TK-10
[52] = system: MDA-MB-435
[53] = system: 786-0
[54] = system: CAKI-1
[55] = system: LOX IMVI
[56] = system: OVCAR-4
[57] = system: MDA-MB-231
[58] = system: HCC 2998

Measured: GI50

COc1ccc(N(C(=O)OC(C)(C)C)[C@@H]2C(C)=C[C@H]([S@@+]([O-])c3ccc(C)cc3)[C@@H]3C(=O)N(C)C(=O)[C@@H]32)cc1
27.5 µM: [16]
inactive: [1] 16.6 µM | [2] 25.2 µM | [3] 23.9 µM | [4] 17.5 µM | [5] 5.48 µM | [6] 15.2 µM | [7] 13.6 µM | [8] 14.3 µM | [9] 20.9 µM | [10] 18.4 µM | [11] 15.1 µM | [12] 22 µM | [13] 10.1 µM | [14] 21.9 µM | [15] 15.8 µM | [17] 15.3 µM | [18] 24.4 µM | [19] 17 µM | [20] 21.5 µM | [21] 21.5 µM | [22] 27.5 µM | [23] 32.2 µM | [24] 16.6 µM | [25] 30.2 µM | [26] 12.6 µM | [27] 4.94 µM | [28] 17.7 µM | [29] 18.3 µM | [30] 20.5 µM | [31] 13.2 µM | [32] 19.3 µM | [33] 2.13 µM | [34] 18.4 µM | [35] 11.6 µM | [36] 33.6 µM | [37] 27.1 µM | [38] 15.5 µM | [39] 18.7 µM | [40] 18.6 µM | [41] 18.6 µM | [42] 17.5 µM | [43] 18.5 µM | [44] 30 µM | [45] 14 µM | [46] 20.9 µM | [47] 11 µM | [48] 10.7 µM | [49] 4.2 µM | [50] 20.5 µM | [51] 17.1 µM | [52] 15 µM | [53] 18.1 µM | [54] 25.3 µM | [55] 3.85 µM | [56] 16.5 µM | [57] 17.4 µM

COc1ccc(C(CC(=O)c2ccc3c(c2)OCO3)c2c(O)oc3ccccc3c2=O)cc1OC (stereo not drawn)
inactive: [1] > 100 µM | [2] 44.7 µM | [3] 88.5 µM | [4] > 100 µM | [5] > 100 µM | [6] 69.3 µM | [7] 36.2 µM | [8] 45.1 µM | [9] > 100 µM | [10] > 100 µM | [11] 73.3 µM | [12] > 100 µM | [13] > 100 µM | [14] > 100 µM | [15] > 100 µM | [17] > 100 µM | [18] > 100 µM | [19] 63.4 µM | [20] 72.6 µM | [21] > 100 µM | [22] > 100 µM | [24] 47 µM | [25] > 100 µM | [26] > 100 µM | [27] > 100 µM | [28] 38.5 µM | [29] > 100 µM | [30] > 100 µM | [31] > 100 µM | [32] 51.1 µM | [33] > 100 µM | [34] 40.6 µM | [35] > 100 µM | [36] > 100 µM | [37] 82.8 µM | [38] 45.8 µM | [39] > 100 µM | [40] 75.3 µM | [58] > 100 µM | [41] > 100 µM | [42] > 100 µM | [43] > 100 µM | [44] 63.5 µM | [45] > 100 µM | [46] 78 µM | [47] > 100 µM | [48] > 100 µM | [49] > 100 µM | [50] > 100 µM | [51] 67.8 µM | [52] > 100 µM | [53] > 100 µM | [54] > 100 µM | [55] 66.5 µM | [56] 61.8 µM | [57] > 100 µM
> 100 µM: [16]
active: [23] 1 µM

Oc1cnnc2nc3ccccc3n12
> 100 µM: [16]
inactive: [1] > 100 µM | [2] > 100 µM | [3] > 100 µM | [4] > 100 µM | [5] > 100 µM | [6] > 100 µM | [7] > 100 µM | [9] > 100 µM | [10] > 100 µM | [11] > 100 µM | [12] > 100 µM | [13] > 100 µM | [14] > 100 µM | [15] > 100 µM | [17] > 100 µM | [18] > 100 µM | [19] > 100 µM | [20] > 100 µM | [21] > 100 µM | [22] > 100 µM | [23] > 100 µM | [24] > 100 µM | [25] > 100 µM | [26] > 100 µM | [27] > 100 µM | [28] > 100 µM | [29] > 100 µM | [30] > 100 µM | [32] > 100 µM | [33] 34.8 µM | [35] > 100 µM | [36] > 100 µM | [38] > 100 µM | [39] > 100 µM | [40] > 100 µM | [58] > 100 µM | [41] > 100 µM | [42] > 100 µM | [43] > 100 µM | [45] > 100 µM | [46] > 100 µM | [47] > 100 µM | [48] > 100 µM | [49] > 100 µM | [50] > 100 µM | [51] > 100 µM | [52] > 100 µM | [53] > 100 µM | [54] > 100 µM | [55] 85.5 µM | [56] > 100 µM | [57] > 100 µM
